From publication PMC6792352, “Limited Chemical Structural Diversity Found to Modulate Thyroid Hormone Receptor in the Tox21 Chemical Library” (Environmental Health Perspectives, 2019) come the findings set out here.

Counter-ions that a name gives are not always drawn.

The series is described as follows: in vitro. The following applies: rat, gh3-tre-luc cells.

Turning to `Cc1nc(C)c(Cl)c(O)c1Cl` [Clopidol], the CC50 – broadly, the concentration at which the toxic effect on the cells reaches its halfway point – at 24 h (AC50 (uM) modified / 1000) is > 50 µM. Same read-out and setting: to `CCCCOC(=O)[C@@H](C)Oc1ccc(Oc2ccc(C(F)(F)F)cn2)cc1` [Fluazifop-P-butyl] belongs > 90 µM; to `O=C(Nc1ccccc1-c1ccc(Cl)cc1)c1cccnc1Cl` [Boscalid], > 100 µM; to `C[C@@H](C1=C(CCN(C)C)Cc2ccccc21)c1ccccn1` [(S)-(+)-Dimethindene maleate], 42.1 µM. Same read-out and setting: to `On1nnc2ccccc21` [1-Hydroxybenzotriazole] belongs > 90 µM. Still for that read-out and setting: to `Cc1c(C)n(Cc2ccccc2)c2ccc(C(=O)OCCN(C)C)cc12` [Indocate] belongs 8.6 µM. On to `O=[N+]([O-])c1ccc(F)cc1F` [2,4-Difluoronitrobenzene], for which, under “AC50 (uM) modified / 1000”, the CC50 at 24 h was > 90 µM. Take `CO[C@@H]1[C@@H](OC(N)=O)[C@@H](O)[C@H](Oc2ccc3c(O)c(NC(=O)c4ccc(O)c(CC=C(C)C)c4)c(=O)oc3c2C)OC1(C)C` [Novobiocin sodium]: the CC50 at 24 h (AC50 (uM) modified / 1000) is > 20 µM. On to `O=C1c2ccccc2C(=O)C1C(=O)C(c1ccccc1)c1ccccc1` [Diphacinone], for which the CC50 at 24 h (AC50 (uM) modified / 1000, Tox21_110001=Tox21_111893, viability, 1 nM T3 present, 24 h) is > 50 µM. As to `Fc1c(F)c(F)c(Br)c(F)c1F` [Bromopentafluorobenzene], the CC50 at 24 h (AC50 (uM) modified / 1000) is > 90 µM. Consider `C[C@H](N)[C@H](O)c1ccccc1` [Phenylpropanolamine hydrochloride], for which the CC50 at 24 h (AC50 (uM) modified / 1000, Tox21_110001=Tox21_110431, viability, 1 nM T3 present, 24 h) is > 20 µM. In the case of `O=C(O)CCN(C1(C(=O)NO)CCCC1)S(=O)(=O)c1ccc(Oc2ccc(F)cc2)cc1` [CP-471358], the CC50 at 24 h (AC50 (uM) modified / 1000) is > 90 µM. The same measure, in the same setting: the result for `O=S(=O)(O)c1ccc2cc(O)c(S(=O)(=O)O)cc2c1` [Disodium 3-hydroxynaphthalene-2,7-disulfonate] reads > 90 µM; that for `CCCCCCCCCCCCCCCCCCCl` [Octadecyl chloride], > 5 µM. Still for that read-out and setting: to `C=COCCOCCOCCOC=C` [3,6,9,12-Tetraoxatetradeca-1,13-diene] belongs > 90 µM. On the same count and under the same terms, to `Clc1ccc(C(Cl)(Cl)Cl)cc1` [4-Chlorobenzotrichloride] belongs > 90 µM. Consider `CCC(Cl)CCl` (centres unmarked) [1,2-Dichlorobutane], for which the CC50 at 24 h (AC50 (uM) modified / 1000, Tox21_110001=Tox21_200147, viability, 1 nM T3 present, 24 h) is > 90 µM. As for `C=C(C)C(=O)OCCCC` [Butyl methacrylate], the CC50 at 24 h (AC50 (uM) modified / 1000) was > 90 µM. Turning to `CC1(C)CC(OC(=O)CCCCCCCCC(=O)OC2CC(C)(C)NC(C)(C)C2)CC(C)(C)N1` [Bis(2,2,6,6-tetramethyl-4-piperidyl) sebacate], for the setting “AC50 (uM) modified / 1000”, the CC50 at 24 h worked out at 1.55 µM.

On to `C=CC(=O)CCCCC` [1-Octen-3-one], for which, where the note is “AC50 (uM) modified / 1000”, the CC50 at 24 h was > 100 µM.

`CC1=C[C@H](O)CC(C)(C)[C@H]1/C=C/C(C)=C/C=C/C(C)=C/C=C/C=C(C)/C=C/C=C(C)/C=C/C1=C(C)C[C@@H](O)CC1(C)C` [Lutein] came in with a CC50 at 24 h (AC50 (uM) modified / 1000) of 28.4 µM. For the compound `O=C1c2c(O)cccc2Cc2cccc(O)c21` [Anthralin], the CC50 at 24 h (AC50 (uM) modified / 1000) was > 90 µM.

On to `COc1ccc2c(c1)c(CC(=O)OCC(=O)O)c(C)n2C(=O)c1ccc(Cl)cc1` [Acemetacin], for which, where the note is “AC50 (uM) modified / 1000”, the CC50 at 24 h is > 50 µM. On the same count and under the same terms, to `C1=C\CC/C=C\CC/1` [1,5-Cyclooctadiene] belongs > 100 µM; to `O=C(O)c1cccc(C(=O)O)c1` [1,3-Benzenedicarboxylic acid], > 90 µM.

In the case of `Cc1cnc(NC(=O)C2=C(O)c3ccccc3S(=O)(=O)N2C)s1` [Meloxicam], for the setting “AC50 (uM) modified / 1000”, the CC50 at 24 h was > 90 µM.

Consider `CC(=O)Nc1ccc(C(=O)O)cc1` [4-Acetamidobenzoic acid], for which the CC50 at 24 h (AC50 (uM) modified / 1000) is > 90 µM. For the compound `CO[C@@H]1[C@H](OC(=O)NC(=O)CCl)CC[C@]2(CO2)[C@H]1[C@@]1(C)O[C@@H]1CC=C(C)C` [o-(Chloroacetylcarbamoyl)fumagillol], the CC50 at 24 h (AC50 (uM) modified / 1000) was > 30 µM. For `COc1ccc(/C=N/NC(=O)c2ccncc2)cc1OC` [Verazide], where the note is “AC50 (uM) modified / 1000”, the CC50 at 24 h was > 50 µM. Compound `CCOc1cc(-c2nccc3cc(OC)c(OC)cc23)cc(OCC)c1OCC` [Octaverine] came in with a CC50 at 24 h (AC50 (uM) modified / 1000) of 28.2 µM. Take `COC(=O)C1CCC(C(=O)OC)CC1` (centres unmarked) [Dimethyl hexahydroterephthalate]: the CC50 at 24 h (AC50 (uM) modified / 1000) is > 90 µM. In the case of `Nc1ccccc1Cl` [2-Chloroaniline], the cytotoxic concentration (CC50) at 24 h (AC50 (uM) modified / 1000, Tox21_110001=Tox21_200802, viability, 1 nM T3 present, 24 h) is > 90 µM. On to `CN(C)CCCNCCCN` [Dimethyldipropylenetriamine], for which the CC50 at 24 h (AC50 (uM) modified / 1000) is > 90 µM. In the case of `COC1=CC(=O)O[C@@H](/C=C/c2ccc3c(c2)OCO3)C1` [Methysticin], where the note is “AC50 (uM) modified / 1000”, the CC50 at 24 h is > 90 µM. Regarding `O=[N+]([O-])c1ccc(Oc2ccc(C(F)(F)F)cc2[N+](=O)[O-])cc1` [Fluorodifen], the CC50 at 24 h (AC50 (uM) modified / 1000, Tox21_110001=Tox21_301354, viability, 1 nM T3 present, 24 h) was > 90 µM. As to `CC1(C)CNC(=NN=C(/C=C/c2ccc(C(F)(F)F)cc2)/C=C/c2ccc(C(F)(F)F)cc2)NC1` [Hydramethylnon], half-maximal cytotoxicity (AC50 (uM) modified / 1000) (CC50 at 24 h) was put at 11.2 µM. Same read-out and setting: the result for `CCCCCCCCCCCCOS(=O)(=O)O` [Sodium dodecyl sulfate] reads > 90 µM; that for `Cc1cccc(O)c1C` [2,3-Dimethylphenol], > 90 µM; that for `Cc1ccc([N+](=O)[O-])c(C)c1` [1,3-Dimethyl-4-nitrobenzene], > 90 µM. On to `CC(=O)OCC(C)C` [Isobutyl acetate], for which the CC50 at 24 h (AC50 (uM) modified / 1000) is > 90 µM. On the same count and under the same terms, to `OC[C@@H](O)C(O)[C@H](O)CO` [D-Arabinitol] belongs > 50 µM; to `OCCSc1ccccc1` [2-Phenylmercaptoethanol], > 90 µM. Same read-out and setting: the result for `CCCCC(=O)O[C@]1(C(=O)CO)CC[C@H]2[C@@H]3CCC4=CC(=O)CC[C@]4(C)[C@H]3[C@@H](O)C[C@@]21C` [Hydrocortisone valerate] reads > 50 µM. Consider `CC(C)OS(C)(=O)=O` [Isopropyl methanesulfonate], for which the CC50 at 24 h (AC50 (uM) modified / 1000, Tox21_110001=Tox21_200855, viability, 1 nM T3 present, 24 h) is > 90 µM. Turning to `NCC[C@H](O)C(=O)N[C@@H]1C[C@H](N)[C@@H](O[C@H]2O[C@H](CN)[C@@H](O)[C@H](O)[C@H]2O)[C@H](O)[C@H]1O[C@H]1O[C@H](CO)[C@@H](O)[C@H](N)[C@H]1O` [Amikacin], where the note is “AC50 (uM) modified / 1000”, the CC50 at 24 h is > 50 µM. The same measure, in the same setting: to `NCCNCCNCCNCCN` [Tetraethylenepentamine] belongs > 90 µM. Same read-out and setting: to `c1ccc2[nH]c(-c3cscn3)nc2c1` [Thiabendazole] belongs > 50 µM. Take `NCCc1c[nH]cn1` [Histamine]: the CC50 at 24 h (AC50 (uM) modified / 1000) was > 50 µM. On the same count and under the same terms, to `Cc1cc(C)c(N)c(Cl)c1` [2-Chloro-4,6-dimethylaniline] belongs > 90 µM; to `O=C1NC(=O)[C@@H]2CC=CC[C@H]12` [1,2,3,6-Tetrahydrophthalimide], > 90 µM.

Take `COC1=CC=C2[C@H]3Cc4ccc(OC)c5c4[C@@]2(CCN3C)[C@H]1O5` [Thebaine]: the CC50 at 24 h by setting is: (AC50 (uM) modified / 1000, Tox21_110001=Tox21_111751, viability, 1 nM T3 present, 24 h) > 20 µM; (AC50 (uM) modified / 1000, Tox21_110001=Tox21_112863, viability, 1 nM T3 present, 24 h) > 90 µM. For the compound `OCc1ccccc1O` [Salicyl alcohol], the CC50 at 24 h (AC50 (uM) modified / 1000) was > 50 µM. The same measure, in the same setting: the result for `O=c1[nH]sc2ccccc12` [1,2-Benzisothiazolin-3-one] reads 5.86 µM; that for `CCCCCCCCCCCC` [Dodecane], > 90 µM.

On to `C1COC1` [1,3-Propylene oxide], for which, for the setting “AC50 (uM) modified / 1000”, the CC50 at 24 h was > 90 µM.

As for `CCCC(CCC)C(=O)OC1C[C@H]2CC[C@@H](C1)[N+]2(C)C` (some centres unmarked) [Anisotropine methylbromide], the CC50 at 24 h (AC50 (uM) modified / 1000) is > 50 µM.

For the compound `NC(=O)CCCCC1CCSS1` (stereo not drawn) [alpha-Lipoic acid amide], the CC50 at 24 h (AC50 (uM) modified / 1000) is > 50 µM. Regarding `CCCOC(=O)NCCCN(C)C` [Propamocarb hydrochloride], the CC50 at 24 h (AC50 (uM) modified / 1000) was > 90 µM.
